We go through 1 compound from ChEMBL document CHEMBL1150188, “Chemistry of Sponges, X. New Sesquiterpenes from a Marine Sponge of the Genus Eurypon” (J Nat Prod, 1990).

Activity calls are given as the source filed them. No cut-off for these calls is given here.

This test concerns Escherichia coli. The test can be described thus: Antimicrobial activity against Escherichia coli at 100 ug/disk by standard disk assay. It counts as functional, organism-based.

As to `CC1(C)C[C@@H]2C3=C[C@@H](O)C[C@](C)(CC[C@@H]21)C3`, the result was Active.
